Our source for the EC50 values is patent publication US12404289B2 (Gilead Sciences, Inc., priority 2020, dated 2025).

pEC50: −log10 of the molar value.

The test system of the assay is Respiratory syncytial virus (RSV) strain A2. In words: RSV antiviral assay (HEp-2, 96 well). The following applies: human respiratory syncytial virus, HEp-2, 96 h, read-out: EC50 RSV HEP2 96, HEp-2 cells, RSV A2, MOI=4, 4 days, 96 well; Table 3. In kind it is cell-based.
For `CCC(C)(C)CCOC(=O)[C@H](C)NP(=O)(OC[C@H]1O[C@@](C#N)(c2ccc3c(N)ncnn23)[C@H](OC(=O)C(C)C)[C@@H]1OC(=O)C(C)C)Oc1ccccc1` (stereo partly drawn) [Example 74, [(2R,3R,4R,5R)-5-(4-aminopyrrolo[2,1-f][1,2,4]triazin-7-yl)-5-cyano-2-[[[[(1S)-2-(3,3-dimethylpentoxy)-1-methyl-2-oxo-ethyl]amino]-phenoxy-phosphoryl]oxymethyl]-4-(2-methylpropanoyloxy)tetrahydrofuran-3-yl] 2-methylpropanoate], the pEC50 was 6.88.
The same measure for `COC(C)(C)CCOC(=O)[C@H](C)NP(=O)(OC[C@H]1O[C@@](C#N)(c2ccc3c(N)ncnn23)[C@H](O)[C@@H]1O)Oc1ccccc1` (stereo partly drawn) [Example 75, (3-methoxy-3-methyl-butyl) (2S)-2-[[[(2R,3S,4R,5R)-5-(4-aminopyrrolo[2,1-f][1,2,4]triazin-7-yl)-5-cyano-3,4-dihydroxy-tetrahydrofuran-2-yl]methoxy-phenoxy-phosphoryl]amino]propanoate]: 6.54; for `COC(C)(C)CCOC(=O)[C@H](C)NP(=O)(OC[C@H]1O[C@@](C#N)(c2ccc3c(N)ncnn23)[C@H](OC(=O)C(C)C)[C@@H]1OC(=O)C(C)C)Oc1ccccc1` (stereo partly drawn) [Example 76, [(2R,3R,4R,5R)-5-(4-aminopyrrolo[2,1-f][1,2,4]triazin-7-yl)-5-cyano-2-[[[[(1S)-2-(3-methoxy-3-methyl-butoxy)-1-methyl-2-oxo-ethyl]amino]-phenoxy-phosphoryl]oxymethyl]-4-(2-methylpropanoyloxy)tetrahydrofuran-3-yl] 2-methylpropanoate]: 7.53.
The same measure for `CCC(CC)COC(=O)[C@H](C)NP(=O)(OC[C@H]1O[C@@](C#N)(c2ccc3c(N)ncnn23)[C@H](OC(=O)C(C)C)[C@@H]1OC(=O)C(C)C)Oc1cccc(C(C)(C)C)c1` (stereo partly drawn) [Example 91, [(2R,3R,4R,5R)-5-(4-aminopyrrolo[2,1-f][1,2,4]triazin-7-yl)-2-[[(3-tert-butylphenoxy)-[[(1S)-2-(2-ethylbutoxy)-1-methyl-2-oxo-ethyl]amino]phosphoryl]oxymethyl]-5-cyano-4-(2-methylpropanoyloxy)tetrahydrofuran-3-yl] 2-methylpropanoate]: 6.71.
Consider `CC(C)CC(=O)O[C@H]1[C@@H](OC(=O)CC(C)C)[C@](C#N)(c2ccc3c(N)ncnn23)O[C@@H]1COP(=O)(N[C@@H](C)C(=O)OC1CCC1)Oc1ccccc1` (stereo partly drawn) [Example 109, (2R,3R,4R,5R)-2-(4-aminopyrrolo[2,1-f][1,2,4]triazin-7-yl)-2-cyano-5-((((((S)-1-cyclobutoxy-1-oxopropan-2-yl)amino)(phenoxy)phosphoryl)oxy)methyl)tetrahydrofuran-3,4-diyl bis(3-methylbutanoate)], for which the pEC50 was 7.36.
In the case of `CCC(=O)O[C@H]1[C@@H](OC(=O)CC)[C@](C#N)(c2ccc3c(N)ncnn23)O[C@@H]1COP(=O)(N[C@@H](C)C(=O)OCC(CC)CC)Oc1ccc(C(C)(C)C)cc1` (stereo partly drawn) [Example 110, (2R,3R,4R,5R)-2-(4-aminopyrrolo[2,1-f][1,2,4]triazin-7-yl)-5-((((4-(tert-butyl)phenoxy)(((S)-1-(2-ethylbutoxy)-1-oxopropan-2-yl)amino)phosphoryl)oxy)methyl)-2-cyanotetrahydrofuran-3,4-diyl Dipropionate], the negative logarithm of the EC50 (pEC50) is 7.24.
`COC(C)(C)COC(=O)[C@H](C)NP(=O)(OC[C@H]1O[C@@](C#N)(c2ccc3c(N)ncnn23)[C@H](O)[C@@H]1O)Oc1ccc(C(C)(C)C)cc1` (stereo partly drawn) [Example 111, 2-methoxy-2-methylpropyl ((((2R,3S,4R,5R)-5-(4-aminopyrrolo[2,1-f][1,2,4]triazin-7-yl)-5-cyano-3,4-dihydroxytetrahydrofuran-2-yl)methoxy)(4-(tert-butyl)phenoxy)phosphoryl)-L-alaninate]: the negative logarithm of the EC50 (pEC50) is 6.07.
For `CCOCCOCCOC(=O)[C@H](C)NP(=O)(OC[C@H]1O[C@@](C#N)(c2ccc3c(N)ncnn23)[C@H](O)[C@@H]1O)Oc1ccc(C(C)(C)C)cc1` (stereo partly drawn) [Example 112, 2-(2-ethoxyethoxy)ethyl ((((2R,3S,4R,5R)-5-(4-aminopyrrolo[2,1-f][1,2,4]triazin-7-yl)-5-cyano-3,4-dihydroxytetrahydrofuran-2-yl)methoxy)(4-(tert-butyl)phenoxy)phosphoryl)-L-alaninate] the value was 6.25; for `CCC(C)(C)COC(=O)[C@H](C)NP(=O)(OC[C@H]1O[C@@](C#N)(c2ccc3c(N)ncnn23)[C@H](OC(=O)C(C)C)[C@@H]1OC(=O)C(C)C)Oc1ccccc1` (stereo partly drawn) [Example 114, (2R,3R,4R,5R)-2-(4-aminopyrrolo[2,1-f][1,2,4]triazin-7-yl)-2-cyano-5-((((((S)-1-(2,2-dimethylbutoxy)-1-oxopropan-2-yl)amino)(phenoxy)phosphoryl)oxy)methyl)tetrahydrofuran-3,4-diyl bis(2-methylpropanoate)], 7.21; for `CCOCCOCCOC(=O)[C@H](C)NP(=O)(OC[C@H]1O[C@@](C#N)(c2ccc3c(N)ncnn23)[C@H](OC(=O)C(C)C)[C@@H]1OC(=O)C(C)C)Oc1ccc(C(C)(C)C)cc1` (stereo partly drawn) [Example 115, (2R,3R,4R,5R)-2-(4-aminopyrrolo[2,1-f][1,2,4]triazin-7-yl)-5-((((4-(tert-butyl)phenoxy)(((S)-1-(2-(2-ethoxyethoxy)ethoxy)-1-oxopropan-2-yl)amino)phosphoryl)oxy)methyl)-2-cyanotetrahydrofuran-3,4-diyl bis(2-methylpropanoate)], 7.20.
The same measure for `CCCCCCOC(=O)[C@H](Cc1ccccc1)NP(=O)(OC[C@H]1O[C@@](C#N)(c2ccc3c(N)ncnn23)[C@H](O)[C@@H]1O)Oc1ccc(C(C)(C)C)cc1` (stereo partly drawn) [Example 119, hexyl ((((2R,3S,4R,5R)-5-(4-aminopyrrolo[2,1-f][1,2,4]triazin-7-yl)-5-cyano-3,4-dihydroxytetrahydrofuran-2-yl)methoxy)(4-(tert-butyl)phenoxy)phosphoryl)-L-phenylalaninate]: 6.25.
On to `CCCCCCOC(=O)[C@H](C)NP(=O)(OC[C@H]1O[C@@](C#N)(c2ccc3c(N)ncnn23)[C@H](O)[C@@H]1O)Oc1ccc(C(C)(C)C)cc1` (stereo partly drawn) [Example 120, hexyl ((((2R,3S,4R,5R)-5-(4-aminopyrrolo[2,1-f][1,2,4]triazin-7-yl)-5-cyano-3,4-dihydroxytetrahydrofuran-2-yl)methoxy)(4-(tert-butyl)phenoxy)phosphoryl)-L-alaninate], for which the negative-log EC50 (pEC50) is 7.13.
`CCCCCCOC(=O)[C@H](Cc1ccccc1)NP(=O)(OC[C@H]1O[C@@](C#N)(c2ccc3c(N)ncnn23)[C@H](OC(=O)C(C)C)[C@@H]1OC(=O)C(C)C)Oc1ccc(C(C)(C)C)cc1` (stereo partly drawn) [Example 123, (2R,3R,4R,5R)-2-(4-aminopyrrolo[2,1-f][1,2,4]triazin-7-yl)-5-((((4-(tert-butyl)phenoxy)(((S)-1-(hexyloxy)-1-oxo-3-phenylpropan-2-yl)amino)phosphoryl)oxy)methyl)-2-cyanotetrahydrofuran-3,4-diyl bis(2-methylpropanoate)]: the pEC50 is 7.20.
For `CCOC(=O)O[C@H]1[C@@H](OC(=O)OCC)[C@](C#N)(c2ccc3c(N)ncnn23)O[C@@H]1COP(=O)(N[C@@H](C)C(=O)OCC)Oc1ccc(C(C)(C)C)cc1` (stereo partly drawn) [Example 124, ethyl ((((2R,3R,4R,5R)-5-(4-aminopyrrolo[2,1-f][1,2,4]triazin-7-yl)-5-cyano-3,4-bis((ethoxycarbonyl)oxy)tetrahydrofuran-2-yl)methoxy)(4-(tert-butyl)phenoxy)phosphoryl)-L-alaninate] the value was 7.17; for `CCCCCCOC(=O)[C@H](C)NP(=O)(OC[C@H]1O[C@@](C#N)(c2ccc3c(N)ncnn23)[C@H](OC(=O)C(C)C)[C@@H]1OC(=O)C(C)C)Oc1ccc(C(C)(C)C)cc1` (stereo partly drawn) [Example 125, (2R,3R,4R,5R)-2-(4-aminopyrrolo[2,1-f][1,2,4]triazin-7-yl)-5-((((4-(tert-butyl)phenoxy)(((S)-1-(hexyloxy)-1-oxopropan-2-yl)amino)phosphoryl)oxy)methyl)-2-cyanotetrahydrofuran-3,4-diyl bis(2-methylpropanoate)], 7.67.
For `CCOC(=O)O[C@H]1[C@@H](OC(=O)OCC)[C@](C#N)(c2ccc3c(N)ncnn23)O[C@@H]1CO[P@@](=O)(N[C@@H](C)C(=O)OCC(CC)CC)Oc1ccccc1` [Example 127, 2-ethylbutyl ((S)-(((2R,3R,4R,5R)-5-(4-aminopyrrolo[2,1-f][1,2,4]triazin-7-yl)-5-cyano-3,4-bis((ethoxycarbonyl)oxy)tetrahydrofuran-2-yl)methoxy)(phenoxy)phosphoryl)-L-alaninate] the value was 7.47; for `COC(C)(C)COC(=O)[C@H](C)N[P@](=O)(OC[C@H]1O[C@@](C#N)(c2ccc3c(N)ncnn23)[C@H](OC(=O)CC(C)C)[C@@H]1OC(=O)CC(C)C)Oc1ccccc1` [Example 168, (2R,3R,4R,5R)-2-(4-aminopyrrolo[2,1-f][1,2,4]triazin-7-yl)-2-cyano-5-((((S)—(((S)-1-(2-methoxy-2-methylpropoxy)-1-oxopropan-2-yl)amino)(phenoxy)phosphoryl)oxy)methyl)tetrahydrofuran-3,4-diyl bis(3-methylbutanoate)], 6.96.
On to `CCC(=O)O[C@H]1[C@@H](OC(=O)CC)[C@](C#N)(c2ccc3c(N)ncnn23)O[C@@H]1CO[P@@](=O)(N[C@@H](C)C(=O)OCC(C)(C)OC)Oc1ccccc1` [Example 169, (2R,3R,4R,5R)-2-(4-aminopyrrolo[2,1-f][1,2,4]triazin-7-yl)-2-cyano-5-((((S)—(((S)-1-(2-methoxy-2-methylpropoxy)-1-oxopropan-2-yl)amino)(phenoxy)phosphoryl)oxy)methyl)tetrahydrofuran-3,4-diyl Dipropionate], for which the pEC50 was 7.20.
The same measure for `CCC(C)(C)COC(=O)[C@H](C)NP(=O)(OC[C@H]1O[C@@](C#N)(c2ccc3c(N)ncnn23)[C@H](O)[C@@H]1O)Oc1ccccc1` (stereo partly drawn) [Intermediate D9, 2,2-dimethylbutyl ((((2R,3S,4R,5R)-5-(4-aminopyrrolo[2,1-f][1,2,4]triazin-7-yl)-5-cyano-3,4-dihydroxytetrahydrofuran-2-yl)methoxy)(phenoxy)phosphoryl)-L-alaninate]: 7.18.

As a reminder, the pEC50 is the negative decadic logarithm of the EC50, by convention in mol/L.
